Columns and labels:
MCF7 [1] = assay: Cytotoxicity against human MCF7 cells assessed as growth inhibition at 10 uM measured after 48 hrs by MTT assay relative to control; assay type: functional; settings: MCF7, 48 h, read-out: GI
MIA PaCa-2 [2] = assay: Cytotoxicity against human MIAPaCa2 cells assessed as growth inhibition at 10 uM measured after 48 hrs by MTT assay relative to control; assay type: functional; settings: MIA PaCa-2, 48 h, read-out: GI
A549 [3] = assay: Cytotoxicity against human A549 cells assessed as growth inhibition at 10 uM measured after 48 hrs by MTT assay relative to control; assay type: functional; settings: A549, 48 h, read-out: GI
HepG2 [4] = assay: Cytotoxicity against human HepG2 cells assessed as growth inhibition at 10 uM measured after 48 hrs by MTT assay relative to control; assay type: functional; settings: HepG2, 48 h, read-out: GI
[5] = Cytotoxicity against human FR2 cells assessed as growth inhibition at 10 uM measured after 48 hrs by MTT assay relative to control; assay type: cell-based; settings: FR2 cells, read-out: GI
MCF7 [6] = assay: Cytotoxicity against human MCF7 cells measured after 48 hrs by MTT assay; assay type: functional, cell-based; settings: MCF7, 48 h
MIA PaCa-2 [7] = assay: Cytotoxicity against human MIAPaCa2 cells measured after 48 hrs by MTT assay; assay type: functional, cell-based; settings: MIA PaCa-2, 48 h
A549 [8] = assay: Cytotoxicity against human A549 cells measured after 48 hrs by MTT assay; assay type: functional, cell-based; settings: A549, 48 h
HepG2 [9] = assay: Cytotoxicity against human HepG2 cells measured after 48 hrs by MTT assay; assay type: functional, cell-based; settings: HepG2, 48 h
[10] = Cytotoxicity against human FR2 cells measured after 48 hrs by MTT assay; assay type: cell-based; settings: FR2, 48 h
[11] = Selectivity index, ratio of IC50 for human FR2 cells to IC50 for human MCF7 cells; assay type: functional
[12] = Selectivity index, ratio of IC50 for human FR2 cells to IC50 for human MIAPaCa2 cells; assay type: functional
MIA PaCa-2 [13] = assay: Cell cycle arrest in human MIAPaCa2 cells assessed as apoptotic cells at 10 uM measured after 24 hrs by propidium iodide staining based flow cytometric analysis (reference value: 1%); assay type: functional
MIA PaCa-2 [14] = assay: Cell cycle arrest in human MIAPaCa2 cells assessed as accumulation at G1 phase at 10 uM measured after 24 hrs by propidium iodide staining based flow cytometric analysis (reference value: 59%); assay type: functional
MIA PaCa-2 [15] = assay: Cell cycle arrest in human MIAPaCa2 cells assessed as accumulation at G2 phase at 10 uM measured after 24 hrs by propidium iodide staining based flow cytometric analysis (reference value: 5%); assay type: functional
MIA PaCa-2 [16] = assay: Cell cycle arrest in human MIAPaCa2 cells assessed as accumulation at S phase at 10 uM measured after 24 hrs by propidium iodide staining based flow cytometric analysis (reference value: 36%); assay type: functional
MIA PaCa-2 [17] = assay: Cell cycle arrest in human MIAPaCa2 cells assessed as apoptotic cells at 30 uM measured after 24 hrs by propidium iodide staining based flow cytometric analysis (reference value: 1%); assay type: functional
MIA PaCa-2 [18] = assay: Cell cycle arrest in human MIAPaCa2 cells assessed as accumulation at G1 phase at 30 uM measured after 24 hrs by propidium iodide staining based flow cytometric analysis (reference value: 59%); assay type: functional
MIA PaCa-2 [19] = assay: Cell cycle arrest in human MIAPaCa2 cells assessed as accumulation at G2 phase at 30 uM measured after 24 hrs by propidium iodide staining based flow cytometric analysis (reference value: 5%); assay type: functional
MIA PaCa-2 [20] = assay: Cell cycle arrest in human MIAPaCa2 cells assessed as accumulation at S phase at 30 uM measured after 24 hrs by propidium iodide staining based flow cytometric analysis (reference value: 36%); assay type: functional
MIA PaCa-2 [21] = assay: Cell cycle arrest in human MIAPaCa2 cells assessed as apoptotic cells at 50 uM measured after 24 hrs by propidium iodide staining based flow cytometric analysis (reference value: 1%); assay type: functional
MIA PaCa-2 [22] = assay: Cell cycle arrest in human MIAPaCa2 cells assessed as accumulation at G1 phase at 50 uM measured after 24 hrs by propidium iodide staining based flow cytometric analysis (reference value: 59%); assay type: functional
MIA PaCa-2 [23] = assay: Cell cycle arrest in human MIAPaCa2 cells assessed as accumulation at G2 phase at 50 uM measured after 24 hrs by propidium iodide staining based flow cytometric analysis (reference value: 5%); assay type: functional
MIA PaCa-2 [24] = assay: Cell cycle arrest in human MIAPaCa2 cells assessed as accumulation at S phase at 50 uM measured after 24 hrs by propidium iodide staining based flow cytometric analysis (reference value: 36%); assay type: functional
MIA PaCa-2 [25] = assay: Cell cycle arrest in human MIAPaCa2 cells assessed as apoptotic cells measured after 24 hrs by propidium iodide staining based flow cytometric analysis; assay type: functional
MIA PaCa-2 [26] = assay: Induction of mitochondrial membrane depolarization in human MIAPaCa2 cells measured after 24 hrs by […] staining based flow cytometric analysis; assay type: functional, cell-based
MIA PaCa-2 [27] = assay: Induction of mitochondrial membrane depolarization in human MIAPaCa2 cells at 10 uM measured after 24 hrs by […] staining flow cytometric analysis (reference value: 2%); assay type: functional
MIA PaCa-2 [28] = assay: Induction of mitochondrial membrane depolarization in human MIAPaCa2 cells at 30 uM measured after 24 hrs by […] staining flow cytometric analysis (reference value: 2%); assay type: functional
MIA PaCa-2 [29] = assay: Induction of mitochondrial membrane depolarization in human MIAPaCa2 cells at 50 uM measured after 24 hrs by […] staining flow cytometric analysis (reference value: 2%); assay type: functional
MIA PaCa-2 [30] = assay: Induction of apoptosis in human MIAPaCa2 cells assessed as activation of procaspase-9 measured after 24 hrs by Western blot analysis; assay type: functional, cell-based
MIA PaCa-2 [31] = assay: Induction of apoptosis in human MIAPaCa2 cells assessed as activation of procaspase-8 measured after 24 hrs by Western blot analysis; assay type: functional, cell-based
MIA PaCa-2 [32] = assay: Induction of apoptosis in human MIAPaCa2 cells assessed as increase in casapase-3 cleavage measured after 24 hrs by Western blot analysis; assay type: functional, cell-based
MIA PaCa-2 [33] = assay: Induction of apoptosis in human MIAPaCa2 cells assessed as increase in PARP-1 cleavage measured after 24 hrs by Western blot analysis; assay type: functional, cell-based

COc1ccc(C(=O)/C=C/c2ccc(OCc3cn(Cc4ccccc4)nn3)cc2)cc1
inhibition of growth at 10 µM (MCF7 [1]): 70%
inhibition of growth at 10 µM (MIA PaCa-2 [2]): 68%
inhibition of growth at 10 µM (A549 [3]): 44%
inhibition of growth at 10 µM (HepG2 [4]): 51%
inhibition at 48 h, 10 µM [5]: 6%
IC50 (MCF7 [6]): 5 µM
IC50 (MIA PaCa-2 [7]): 4 µM
IC50 (A549 [8]): 11 µM
IC50 (HepG2 [9]): 9 µM
IC50 [10]: > 100 µM
Ratio IC50 [11]: >20
Ratio IC50 [12]: 25
Activity (MIA PaCa-2 [13]): 2%
Activity (MIA PaCa-2 [14]): 36%
Activity (MIA PaCa-2 [15]): 11%
Activity (MIA PaCa-2 [16]): 53%
Activity (MIA PaCa-2 [17]): 6%
Activity (MIA PaCa-2 [18]): 52%
Activity (MIA PaCa-2 [19]): 14%
Activity (MIA PaCa-2 [20]): 44%
Activity (MIA PaCa-2 [21]): 11%
Activity (MIA PaCa-2 [22]): 41%
Activity (MIA PaCa-2 [23]): 8%
Activity (MIA PaCa-2 [24]): 51%
Activity (MIA PaCa-2 [25]): Dose-dependent effect
Activity (MIA PaCa-2 [26]): Dose-dependent effect
Activity (MIA PaCa-2 [27]): 4%
Activity (MIA PaCa-2 [28]): 8%
Activity (MIA PaCa-2 [29]): 11%
Activity (MIA PaCa-2 [30]): Dose-dependent effect
Activity (MIA PaCa-2 [31]): Dose-dependent effect
Activity (MIA PaCa-2 [32]): Dose-dependent effect
Activity (MIA PaCa-2 [33]): Dose-dependent effect

Reference: ChEMBL document CHEMBL4000203, “Green synthesis and anticancer potential of chalcone linked-1,2,3-triazoles” (Eur J Med Chem, 2017)
